Patent US11235976B2, “Nanocarbon-iron composite system as well as composition, preparation method and use thereof” (Chongqing Lummy Pharmaceutical Co., LTD, priority 2017, dated 2022)

The substances below were run on SKOV3 ovarian cancer cells (assay: Cell experiment, cell survival rate). Conditions: iron preparation alone 0.43 μg/mL, 48 h.
Type: cell-based
Method: (§1) Cells growing in a log phase are collected, the concentration of the cell suspension is adjusted, 100 μL of cell suspension is added to each well and the cells are plated (edge wells are filled with sterile PBS) at a density of 1×10^3-10^4 cells/well. The cells are incubated for 24 hours at 37° C. under the condition of 5% CO2, a nanocarbon-iron solution having a concentration gradient (nanocarbon content: 125, 62.5, 15.63 and 3.91 μg/mL; and ferric ion content: 13.65, 6.83, 1.71 and 0.43 μg/mL) is added, and three sub-wells are set. Then the cells are incubated for 48 hours at 37° C. under the condition of 5% CO2. 10 μL of CCK8 solution is added to each well and then the cells are continuously incubated for 2 hours. The absorbance of each well is measured at OD=450 nm with the microplate reader. In addition, a negative control group, nanocarbon control groups having the same concentration and iron preparation control groups having the same concentration are set.
as §1, with “and 1” for “100”, “of a 6-well plate” for “and the cells are plated (edge wells are filled with sterile PBS)”, “3×10^4” for “1×10^3-10^4”, “1.71,” for “1.71 and”, “The” for “10 μL of CCK8 solution is added to each well and then the”, “trypsinized and counted.” for “continuously incubated for 2 hours. The absorbance of each well is measured at OD=450 nm with the microplate reader.”

Substance | Cell Survival Rate
ferrous gluconate | 100%

Same assay, conditions: iron preparation alone 1.71 μg/mL, 48 h

Substance | Cell Survival Rate
ferrous gluconate | 100%

Same assay, conditions: iron preparation alone 6.83 μg/mL, 48 h

Substance | Cell Survival Rate
ferrous gluconate | 96.47%

Same assay, conditions: iron preparation alone 13.65 μg/mL, 48 h

Substance | Cell Survival Rate
ferrous gluconate | 97.11%

The substances below were run on Hela cervical cancer cells (assay: Cell experiment, cell survival rate). Conditions: iron preparation alone 0.43 μg/mL, 48 h.
Type: cell-based
Method: as §1
as §1, with “and 1” for “100”, “of a 6-well plate” for “and the cells are plated (edge wells are filled with sterile PBS)”, “3×10^4” for “1×10^3-10^4”, “1.71,” for “1.71 and”, “The” for “10 μL of CCK8 solution is added to each well and then the”, “trypsinized and counted.” for “continuously incubated for 2 hours. The absorbance of each well is measured at OD=450 nm with the microplate reader.”

Substance | Cell Survival Rate
ferrous gluconate | 100%

Same assay, conditions: iron preparation alone 1.71 μg/mL, 48 h

Substance | Cell Survival Rate
ferrous gluconate | 100%

Same assay, conditions: iron preparation alone 6.83 μg/mL, 48 h

Substance | Cell Survival Rate
ferrous gluconate | 100%

Same assay, conditions: iron preparation alone 13.65 μg/mL, 48 h

Substance | Cell Survival Rate
ferrous gluconate | 97.86%

These substances were tested on SMMC7721 liver cancer cells (assay: Cell experiment, cell survival rate). Conditions: SMMC-7721; iron preparation alone 0.43 μg/mL; 48 h.
Type: cell-based
Method: as §1
as §1, with “and 1” for “100”, “of a 6-well plate” for “and the cells are plated (edge wells are filled with sterile PBS)”, “3×10^4” for “1×10^3-10^4”, “1.71,” for “1.71 and”, “The” for “10 μL of CCK8 solution is added to each well and then the”, “trypsinized and counted.” for “continuously incubated for 2 hours. The absorbance of each well is measured at OD=450 nm with the microplate reader.”

Substance | Cell Survival Rate
ferrous gluconate | 100%

Same assay, conditions: SMMC-7721; iron preparation alone 1.71 μg/mL; 48 h

Substance | Cell Survival Rate
ferrous gluconate | 96.12%

Same assay, conditions: SMMC-7721; iron preparation alone 6.83 μg/mL; 48 h

Substance | Cell Survival Rate
ferrous gluconate | 97.68%

Same assay, conditions: SMMC-7721; iron preparation alone 13.65 μg/mL; 48 h

Substance | Cell Survival Rate
ferrous gluconate | 100%

These substances were tested on SGC-7901 stomach cancer cells (assay: Cell experiment, cell survival rate). Conditions: iron preparation alone 0.43 μg/mL, 48 h.
Type: cell-based
Method: as §1
as §1, with “and 1” for “100”, “of a 6-well plate” for “and the cells are plated (edge wells are filled with sterile PBS)”, “3×10^4” for “1×10^3-10^4”, “1.71,” for “1.71 and”, “The” for “10 μL of CCK8 solution is added to each well and then the”, “trypsinized and counted.” for “continuously incubated for 2 hours. The absorbance of each well is measured at OD=450 nm with the microplate reader.”

Substance | Cell Survival Rate
ferrous gluconate | 100%

Same assay, conditions: iron preparation alone 1.71 μg/mL, 48 h

Substance | Cell Survival Rate
ferrous gluconate | 100%

Same assay, conditions: iron preparation alone 6.83 μg/mL, 48 h

Substance | Cell Survival Rate
ferrous gluconate | 99.48%

Same assay, conditions: iron preparation alone 13.65 μg/mL, 48 h

Substance | Cell Survival Rate
ferrous gluconate | 97.43%

The substances below were run on MDA-MB-231 breast cancer cells (assay: Cell experiment, cell survival rate). Conditions: iron preparation alone 0.43 μg/mL, 48 h.
Type: cell-based
Method: as §1
as §1, with “and 1” for “100”, “of a 6-well plate” for “and the cells are plated (edge wells are filled with sterile PBS)”, “3×10^4” for “1×10^3-10^4”, “1.71,” for “1.71 and”, “The” for “10 μL of CCK8 solution is added to each well and then the”, “trypsinized and counted.” for “continuously incubated for 2 hours. The absorbance of each well is measured at OD=450 nm with the microplate reader.”

Substance | Cell Survival Rate
ferrous gluconate | 100%

Same assay, conditions: iron preparation alone 1.71 μg/mL, 48 h

Substance | Cell Survival Rate
ferrous gluconate | 100%

Same assay, conditions: iron preparation alone 6.83 μg/mL, 48 h

Substance | Cell Survival Rate
ferrous gluconate | 100%

Same assay, conditions: iron preparation alone 13.65 μg/mL, 48 h

Substance | Cell Survival Rate
ferrous gluconate | 100%

These substances were tested on HCT116 colon cancer cells (assay: Cell experiment, cell survival rate). Conditions: iron preparation alone 0.43 μg/mL, 48 h.
Type: cell-based
Method: as §1
as §1, with “and 1” for “100”, “of a 6-well plate” for “and the cells are plated (edge wells are filled with sterile PBS)”, “3×10^4” for “1×10^3-10^4”, “1.71,” for “1.71 and”, “The” for “10 μL of CCK8 solution is added to each well and then the”, “trypsinized and counted.” for “continuously incubated for 2 hours. The absorbance of each well is measured at OD=450 nm with the microplate reader.”

Substance | Cell Survival Rate
ferrous gluconate | 100%

Same assay, conditions: iron preparation alone 1.71 μg/mL, 48 h

Substance | Cell Survival Rate
ferrous gluconate | 100%

Same assay, conditions: iron preparation alone 6.83 μg/mL, 48 h

Substance | Cell Survival Rate
ferrous gluconate | 100%
